Like-named read-outs stand apart in the source and are kept apart here.

The text below walks through data of patent US6841577B2, “Pesticidal activity of plant essential oils and their constituents” (Ecosmart Technologies, Inc., priority 1999, dated 2005).

Series [1] has as its system heart of American cockroach (octopamine receptors). In words: Heartbeat after application to thoracic segment. As to conditions: mean ±SD of three roaches; for Heart beat/30 sec 30 min after treatment: 300 μg applied to thoracic segment; for Heart beat/30 sec before treatment: baseline of the same roaches. The format is in vivo. As for the experimental part: To further establish the effect of the purified naturally occurring plant essential oils and/or their constituents on the American cockroach, a 300 μg amount of the chemical was applied to the thoracic segment of an intact and alive American cockroach. The heart beats/30 seconds was measured. The heart of the cockroach is known to have a high concentration of octopamine receptors and the heart beat is considered an important measurement to indicate the effect of the applied chemicals to the octopamine receptors.

Series [2] deals with 2nd instar green peach aphid nymphs. In words: Cabbage leaf disc bioassay. It counts as in vivo. As for the experimental part:
A bioassay similar to that for S. litura larvae was used for additional larvae. Cabbage leaf discs were dipped in emulsified aqueous solutions, diluted 1:200 in water, on which 2nd instar green peach aphid nymphs were placed. For each treatment there was 10 aphids per disc with 5 replicates; each experiment was replicated in time (successive days) from 3-5 times. After 24 hours, aphids were reported as being (1) on the leaf disc and feeding; (2) alive, but walking off the disc; or (3) dead. In the field, aphids which cease feeding and abandon a host plant are very unlikely to survive.

The subject of series [3] is American cockroach. In words: Cross walk jar test on pre-treated surface. It counts as in vivo. As to conditions: for pesticidal activity against cockroaches, in words: in vivo. The procedure: In the test, a known amount of the test material was dissolved in a known volume of acetone and applied to small jars and all inner bottom surfaces were covered. The bottom surface of each jar is approximately 250 cm^2. One hour after the acetone had completely evaporated, five American cockroaches were introduced to each jar. Control jars were treated exactly as above but with the known amount of acetone only.
The results of the “cross walk” jar tests are in Table 8 in which the “4-blend” was dispersed as an aerosol and a dust in the jar.
In this test, the acetone solution of the test material was placed in the jar and the roach inserted into the jar after the acetone had evaporated.
Mortality was measured 24 hours after exposure.
The “4-blend” and the individual constituents of the “4-blend” were tested using 10 cockroaches for each “cross walk” treatment. In addition, pyrethrins were tested separately and mixed with the various components.
A concentration of 100 mg/jar was used for each individual alone. In the co-treatment experiment without pyrethrins, 20 mg/jar for each chemical was used. In the cotreatment experiment with pyrethrins, 20 mg/jar for the naturally occurring plant material was used. Pyrethrins was used at 2 mg/jar. […] It was noted above that the mortality is dependent upon concentration. […] Some synergism is found between pyrethrins and either α-terpineol or benzyl alcohol.

The test system of series [4] is octopamine receptor sites. In words: 3H-OA binding to ventral nerve cord / synaptosomal membrane protein. Further details: species or system American cockroach (Periplaneta americana). As to conditions: for dpm 3H-OA/500 μg protein: Table 2; for classification with respect to octopamine receptor sites (OAR): based on the binding data of Tables 1-3. The procedure:
Different concentrations of unlabeled octopamine (OA) (20, 30, 40, 50, 60, 100 ng) were tested on the binding activity as a positive control. Test chemicals were dissolved in acetone before the assay. Different concentrations of the test chemicals were added directly to the protein preparation from ventral nerve cord. The same amount of solvent (1 μl 0.1%) were added to the control samples. All assays with test chemicals were run in the presence and absence of 50 ng OA. All chemicals were added to the protein extract 20 min prior the addition of radio labeled ^3H-OA(100,000 cpm/sample). After 30 min at 24° C. of the addition of ^3H-OA, the reaction was stopped by the addition of ice-cold Tris buffer, and the samples were filtered through GF/C membrane using water vacuum. After two washes each with 5 ml Tris buffer, the membrane was removed, air dried and the radioactivity was counted in 4 ml liquid scintillation solution. The specific binding was calculated as the difference between the values in the presence and absence of unlabeled OA. All data are calculated as the mean±standard deviation of 5 assays.
Additional tests were conducted on radio labeled octopamine using other purified naturally occurring materials as given in Tables 2 and 3.

The subject of series [5] is American cockroach. In words: Lethal effect of injected test chemicals. It counts as in vivo. The procedure: Further studies were conducted to determine the LD 50 of purified naturally occurring plant essential oils and/or their constituents. […] Ten roaches per dose were used. Another group of ten roaches received the same volume of vehicle only (0.5 μl) and used as a control group. Mortality was recorded 24, 48, and 72 hours after exposure.

Series [6] concerns 3rd instar Asian armyworms (Spodoptera litura). As to conditions: control 0. The procedure: Additional synergistic testing was conducted on 3rd instar Asian armyworms (Spodoptera litura). […] The number of replicates is given as “n”.
[7] abbreviates: 500 ng/ml, solvent control 1101 ± 120.
Where [8] appears, read: 500 ng/ml, Table 3, solvent control 1385 ± 101.
Setting [9] is: 1000 ng/ml, solvent control 930 ± 89.
Setting [10] is: 500 μg/roach injected into thoracic and abdominal segments, 24 hr., dead/10.
[11] abbreviates: 500 μg/roach injected, 48 hr., dead/10.
[12] abbreviates: 500 μg/roach injected, 72 hr., dead/10, control 1/10.
[13] abbreviates: 300 ng test chemical, Table 1, solvent control 1280 ± 259.
The mark [14] stands for this setting: 500 ng test chemical, Table 1, solvent control 1280 ± 259.
Setting [15] is: 700 ng test chemical, Table 1, solvent control 1280 ± 259.
[16] abbreviates: 1000 ng test chemical, Table 1, solvent control 1280 ± 259.
Setting [17] is: 1500 ng test chemical, Table 1, solvent control 1280 ± 259.

Consider `CC(=O)OCc1ccccc1` [Benzyl Acetate], for which, in series [1], the “Heart beat/30 sec 30 min after treatment” value is on record as 42 ± 1 beat/30 sec and the “Heart beat/30 sec before treatment” value was determined as 45 ± 2 beat/30 sec.

`OCc1ccccc1` [Benzyl Alcohol]: the “Heart beat/30 sec 30 min after treatment” value in series [1] is 39 ± 2 beat/30 sec. In series [1], the “Heart beat/30 sec before treatment” value was 45 ± 3 beat/30 sec. For the same molecule, the “activity on green peach aphid nymphs, in words” value in series [2] (1:200 dilution) was “relatively inactive”. Moreover, the “Percentage of aphids Walking (off disc)” value in series [2] (diluted 1:200 in water, after 24 hours, n = 250, Table 16, control 23.4) is on record as 22.3%. Further, in series [2] (diluted 1:200 in water, after 24 hours, n = 250, Table 16, control 24.8), the “Percentage of aphids Dead” value was found to be 32.8%. For the same molecule, the “Percentage of aphids Feeding” value in series [2] (diluted 1:200 in water, after 24 hours, n = 250, Table 16, control 51.7) was found to be 44.5%. Also, the mortality (in general, the share of the test organisms that died) at 100 mg in series [3] (Periplaneta americana, 24 h) turned out to be 0%; in series [3] (Periplaneta americana, 48 h), 20%; in series [3] (Periplaneta americana, 72 h), 40%. The mortality at 10 mg in series [3] (Periplaneta americana, inhaled or nasal) was determined as 100%.

`OC/C=C/c1ccccc1` [Cinnamic Alcohol]: in series [1], the “Heart beat/30 sec 30 min after treatment” value was 54 ± 3 beat/30 sec and the “Heart beat/30 sec before treatment” value was found to be 52 ± 2 beat/30 sec.

In the case of `CC12CCC(CC1)C(C)(C)O2` [Eucaluptol, Eucalyptol], the “agonist/antagonist note to 3H-OA binding” value in series [4] (500 ng/ml) is “antagonist”. Further, the entries for the “dpm 3H-OA/500 μg protein” value in series [4] (setting [7]) and in series [4] (setting [9]) were 865 ± 45 dpm 3H-OA/500 μg protein and 653 ± 36 dpm 3H-OA/500 μg protein, respectively. In addition, the “cpm 3H-OA/500 μg protein” value in series [4] (setting [8]) was 1637 ± 095 cpm 3H-OA/500 μg protein. In series [4], the “classification with respect to octopamine receptor sites (OAR)” value (“classification” below) is recorded as “Non-OAR Specific Toxicants”. Besides, the Mortality in series [5] (setting [10]), in series [5] (setting [11]) and in series [5] (setting [12]) was 0/10 each time.

For `COC(=O)c1ccccc1O` [Methyl salicylate], in series [4], the “activity/binding at octopamine receptor sites, in words” value is listed as “antagonists which are most strongly bound” and the “classification” value is reported as “extremely high OAR antagonists”. Also, the “agonist/antagonist note to 3H-OA binding” value in series [4] (500 ng/ml) is listed as “antagonist”. In series [4] (setting [8]), the “cpm 3H-OA/500 μg protein” value is 0084 ± 009 cpm 3H-OA/500 μg protein. Further, in series [3] (Periplaneta americana, 24 h), the mortality at 10 mg is 0%, the mortality at 20 mg is 20%, the mortality at 30 mg turned out to be 40% and the mortality at 40 mg was found to be 80%. Besides, in series [3] (Periplaneta americana, 24 h), the mortality at 50 mg is 100%. For the same molecule, the “pesticidal activity against cockroaches, in words” value in series [3] is “high pesticidal activity”.

With `Cc1ccc(C(C)C)c(O)c1` [Thymol], the “cpm 3H-OA/500 μg protein” value in series [4] (setting [8]) came out at 1310 ± 91 cpm 3H-OA/500 μg protein; in series [4] (1000 ng/ml, Table 3, solvent control 1915 ± 110) it was 806 ± 71 cpm 3H-OA/500 μg protein. In series [4], the “classification” value is “Non-OAR Specific Toxicants”. For the same molecule, the “Mortality (%)” value is 98% in series [6] (diluted 1:400 with water, n = 50, Table 12); 24.5% in series [6] (dilution rate 1:500, n = 150, Table 14 right); 29% in series [6] (n = 50, Table 13 right, 1:500 printed for Thymol only). Also, in series [3] (Periplaneta americana, 24 h), the mortality at 40 mg was 80%. In addition, the mortality at 100 mg in series [3] (Periplaneta americana, 24 h) was determined as 100%.

Regarding `CC(C)=CCCC(C)CC=O` (stereo not shown) [citronellal], the Mortality in series [5] (setting [10]), in series [5] (setting [11]) and in series [5] (setting [12]) was 0/10 each time.

Turning to `C=C(C)[C@H]1CC=C(C)CC1` [d-limonene], the “activity/binding at octopamine receptor sites, in words” value in series [4] was “no activity against octopamine receptor sites”. Moreover, the figures for the “dpm 3H-OA/500 μg protein” value in series [4] (setting [7]) and in series [4] (setting [9]) were 1194 ± 101 dpm 3H-OA/500 μg protein and 866 ± 71 dpm 3H-OA/500 μg protein, respectively. Moreover, the Mortality in series [5] (setting [10]), in series [5] (setting [11]) and in series [5] (setting [12]) was 0/10 each time.

Take `OCCc1ccccc1` [phenethyl alcohol]: the Mortality in series [5] (setting [10]), in series [5] (setting [11]) and in series [5] (setting [12]) was 0/10 each time. Moreover, the “Heart beat/30 sec 30 min after treatment” value in series [1] is on record as 29 ± 2 beat/30 sec. In series [1], the “Heart beat/30 sec before treatment” value amounted to 47 ± 2 beat/30 sec. For the same molecule, the mortality at 100 mg was 0% in series [3] (Periplaneta americana, 24 h); 0% in series [3] (Periplaneta americana, 48 h); 0% in series [3] (Periplaneta americana, 72 h).

With `CC(C)=C1CC[C@@H](C)CC1=O` [pulegone], the “cpm 3H-OA/500 μg protein” value in series [4] (setting [13]) is given as 936 ± 33 cpm 3H-OA/500 μg protein; in series [4] (setting [14]), 778 ± 22 cpm 3H-OA/500 μg protein; in series [4] (setting [15]), 662 ± 51 cpm 3H-OA/500 μg protein; in series [4] (setting [16]), 435 ± 22 cpm 3H-OA/500 μg protein; in series [4] (setting [17]), 217 ± 18 cpm 3H-OA/500 μg protein. For the same molecule, the “classification” value in series [4] is reported as “high OAR antagonists”. Besides, the Mortality in series [5] (50 μg injected through the end of the abdominal segment, 48 hr. after treatment) is reported as 20%; in series [5] (setting [10]), 6/10; in series [5] (setting [11]), 6/10; in series [5] (setting [12]) it was 7/10. Further, the “Mortality 24 hr after treatment” value in series [5] (300 μg, dead/10) was 3/10; in series [5] (400 μg, dead/10), 5/10; in series [5] (500 μg, dead/10) it was 5/10; in series [5] (600 μg, dead/10) it was 8/10; in series [5] (700 μg, dead/10), 10/10. Besides, the mortality at 10 mg in series [3] (Periplaneta americana, 24 h) turned out to be 100%. Further, the “pesticidal activity against cockroaches, in words” value in series [3] is on record as “high pesticidal activity”.

For the molecule `CC1=CCC(C(C)(C)O)CC1` (stereo not drawn) [α-terpineol], the “cpm 3H-OA/500 μg protein” value in series [4] (setting [13]) is given as 1213 ± 110 cpm 3H-OA/500 μg protein; in series [4] (setting [14]), 1031 ± 24 cpm 3H-OA/500 μg protein; in series [4] (setting [15]), 910 ± 88 cpm 3H-OA/500 μg protein; in series [4] (setting [16]) it was 700 ± 88 cpm 3H-OA/500 μg protein; in series [4] (setting [17]), 565 ± 47 cpm 3H-OA/500 μg protein. The “classification” value in series [4] was “moderate OAR antagonists”. Further, the “Heart beat/30 sec 30 min after treatment” value in series [1] stood at 32 ± 2 beat/30 sec. Also, the “Heart beat/30 sec before treatment” value in series [1] came out at 58 ± 4 beat/30 sec. Also, the mortality at 100 mg in series [3] (Periplaneta americana, 24 h) amounted to 20%; in series [3] (Periplaneta americana, 48 h) it was 30%; in series [3] (Periplaneta americana, 72 h), 60%.
